For assay [1], the system named is VUP melanoma cell line. Nature of the assay: Adhesion assay: [51Cr]-VUP cells to laminin. The assay is classed as cell-based. Here is the method: (§1) RGD peptides were plated at a maximum concentration of 200 μM and a minimum concentration of 2 nM. For each RGD peptide sequence, linear peptides (A), cyclic peptides (B), and 4-[^19F]-fluorobenzoyl cyclic peptides (C) were assayed. Each RGD peptide concentration was performed in quadruplicate and each experiment was repeated twice.
(§2) Plastic 96-well plates (Falcon 3912; Becton Dickinson) were coated with 50 μl substrate (10 μg/ml laminin or 5 μg/ml vitronectin). The plates were incubated at 37° C. in an 8% CO2 atmosphere for 1 hour. Unbound protein was flicked off and the plates were washed with phosphate buffered saline (PBS) and blocked with bovine serum albumin (0.1% w/v BSA)/PBS/0.1% sodium azide) for 1 hour. The plates were then washed with PBS, placed on a bed of ice and 25 μl of peptide was added to the wells.
(§3) Sodium [^51Cr] chromate was purchased from Amersham International, UK. The solution was made isotonic by the addition of 110 μl 10× Hanks buffered salt solution. 100 μl of this solution (3.7 MBq) was added to 5-10×10^6 cells in 500 μl of serum-containing growth medium. The suspension was incubated at 37° C. for 45 minutes with regular agitation to resuspend the cells. The cells were then washed and spun 3 times with serum-free E4 medium to remove any free [^51Cr]chromium. A trypan blue viability count was performed and the cells were diluted to the necessary volume in serum-free E4 medium (4×10^5 cells/ml).
25 μl (about 10,000 cells) were added to each quadruplicate well and the plates incubated at 37° C. in an 8% CO2 atmosphere for 1 hour. Unbound cells were flicked off and the plates were washed twice with PBS/BSA containing 1 mM CaCl2 and 0.5 mM MgCl2. The plates were dabbed dry and cut into individual wells. The radioactivity associated with each well was determined in a gamma counter (1261 Multigamma; Wallac, Sweden). Quadruplicate 25 μl samples of labeled cells were counted as 100% input values. To determine non-specific binding, the ability of cells to bind BSA-coated wells was also assessed. […]
(§4) The results were calculated as follows: [formula] […]

The subject of assay [2] is A375M melanoma cell line. Nature of the assay: Adhesion assay: [51Cr]-A375M cells to laminin. The assay is classed as cell-based, human. Here is the method: as §1, §2, §3
25 μl (about 10,000 cells) were added to each quadruplicate well and the plates incubated at 37° C. in an 8% CO2 atmosphere for 1 hour. Unbound cells were flicked off and the plates were washed twice with PBS/BSA containing 1 mM CaCl2 and 0.5 mM MgCl2. The plates were dabbed dry and cut into individual wells. The radioactivity associated with each well was determined in a gamma counter (1261 Multigamma; Wallac, Sweden). Quadruplicate 25 μl samples of labeled cells were counted as 100% input values. To determine non-specific binding, the ability of cells to bind BSA-coated wells was also assessed. Data for these wells are referred to as background.
The results were calculated as follows: [formula] [formula] NMR Spectroscopy of RGD Peptides
The A375M and VUP melanoma cell lines were used with vitronectin and laminin as substrates. Peptides were titrated in 10-fold dilutions from 200 μM to 2 nM. All data were normalized to the absence of peptide, which corresponded to 100% adhesion. All titrations were performed in quadruplicate and each experiment was repeated at least twice.

For the next assay, the target named is T1, α5β1 integrin (Homo sapiens, UniProt P05556+P08648).
T1 construct: chimeras comprising the extracellular domain of αvβ3, αvβ5, α5β1, and αIIbβ3 linked to the Fc domain of either mouse IgG; purchased Celltech plc (supplied, no catalogue number)
Nature of the assay: ELISA: soluble α5β1-hFc binding to immobilized 50 kDa fibronectin fragment in the presence of RGD peptides. The source says: (§5) Four different soluble integrins were supplied by Celltech plc. Soluble forms of αvβ3, αvβ5, α5β1, and αIIbβ3 integrin were generated by constructing chimeras comprising the extracellular domain of αvβ3, αvβ5, α5β1, and αIIbβ3 linked to the Fc domain of either mouse IgG (αvβ3-mFc, αvβ5-mFc, and αIIbβ3-mFc) or human IgG (α5β1-hFc) as described by Stephens et al., Cell Adhes. Commun., 7:377-390 (2000) and Coe et al., J. Biol. Chem., 276:35854-35866 (2001). Since the four soluble integrin chimeras were supplied either as purified proteins (αvβ3-mFc and α5β1-hFc) or as unpurified hybridoma supernatants (αIIbβ3-mFc and αvβ5-mFc), it was necessary to use two types of ELISAs. […] In one type of ELISA (FIGS. 2A and 2B), the immobilized component is a 50 kDa fragment of fibronectin. In the second type of ELISA (FIGS. 2C and 2D), the immobilized component is a goat anti-mFc antibody that is used to capture chimeric proteins so that the RGD binding site of the integrin is maximally exposed. Each three-sided box in FIG. 2 represents a single well of a 96-well plate, and the components are listed in the sequence of their addition to the assay. The immobilized component at the bottom of the well is bound to the well by electrostatic interactions.
To analyze the affinity and selectively of RGD peptides for αvβ3 and α5β1, 96-well ELISA plates were coated with 100 μl of a 5 μg/ml of the 50 kDa fragment of fibronectin in PBS per well and left overnight at 4° C. The plates were washed with PBS using a Denley Wellwash 4 Mk 2. Washing was repeated twice with a 400 μl wash per well. 200 μ/well of blocking buffer (i.e., to prevent non-specific binding of proteins) was then added for 1 hour followed by a repeat washing with PBS. RGD peptides were then added at a maximum concentration of 200 μM and a preliminary screen was performed at three concentrations, 200,20, and 2 μM. 100 μl of an RGD peptide was added to each well and each assay was performed in triplicate. Purified soluble αvβ3-mFc or purified α5β1-hFc was diluted to 2 μg/ml and 15 ng/ml, respectively, in conjugate buffer and 100 μl was added to each well. The plates were incubated for 2 hours with shaking using a Luckham R100 Rotatest at approximately 150 rpm. After incubation, the plates were washed with PBS as previously described and a labeled antibody was added. For the αvβ3 assay, a horseradish peroxidase (HRP)-labeled F(ab′)2 fragment of goat anti-mouse IgG Fc was diluted 1:2000 in conjugate buffer and 100 μl was added to each well. For the α5β1 assay, an HRP-labeled F(ab′)2 fragment of goat anti-human IgG Fc was diluted 1:2000 in conjugate buffer and 100 μl was added to each well. Plates were incubated for 30 minutes with shaking followed by 2 washes with PBS. 100 μl of TMB substrate was added to each well and plates were shaken during a 10 minute color development. Plates were read using a plate spectrophotometer at 630 nm.
(§6) Two negative and two positive controls were used in both types of ELISAs. For example, the negative controls were wells that contained 50 μl of an active control peptide, integrin, and biotinylated ligand or 50 μl of the active control peptide and 50 μl of buffer. These negative control wells typically develop little to no color. […] These wells typically develop the maximum amount of color.
(§7) FIGS. 3-6 illustrate the percent binding of the vitronectin, fibronectin, or fibrinogen ligand to αvβ5, α5β1, αIIbβ3, or αvβ3 integrin in the presence of RGD peptides (i.e., linear (A), cyclic (B), or 4-[^19F]-fluorobenzoyl cyclic (C)) at different concentrations, with 100% maximum signal being the signal obtained in the absence of the peptide.
(In general: In an ELISA, binding on a coated surface is turned into a signal by an enzyme label.)

In the next assay the target is T2, αvβ5 integrin (Homo sapiens, UniProt P06756+P18084).
T2 construct: chimeras comprising the extracellular domain of αvβ3, αvβ5, α5β1, and αIIbβ3 linked to the Fc domain of either mouse IgG; purchased Celltech plc (supplied, no catalogue number); host or cells: unpurified hybridoma / tissue culture supernatant from secreting cells
The experiment in a line: ELISA: biotinylated vitronectin binding to captured soluble αvβ5-mFc in the presence of RGD peptides.
Text: as §5
To analyze the affinity and selectively of RGD peptides for αIIbβ3 and αvβ5, 96-well ELISA plates were coated with anti-murine Fc antibody at 5 μg/ml in PBS, 100 μl per well and left overnight at 4° C. The plates were washed with PBS using a Denley Wellwash 4 Mk 2. Washing was repeated twice with a 400 μl wash per well. 200 μl/well of blocking buffer was then added for 1 hour followed by a repeat washing with PBS. 100 μl of tissue culture supernatant from cells secreting soluble αIIbβ3-mFc or αvβ5-mFc, diluted 1:2 in conjugate buffer, was added to each well. Plates were incubated with shaking for 1 hour followed by two washes with PBS. 100 μl of an RGD peptide (at concentrations of 200, 20, and 2 μM), followed by either 100 μl of biotinylated fibrinogen (at 1 μg/ml in conjugate buffer) or 100 μl of biotinylated vitronectin (at 2 μg/ml in conjugate buffer) were added to each well and incubated for 2 hours with shaking. After incubation, the plates were washed with PBS as described above. 100 μl of neutravidin-peroxidase was added to each well and the plates were incubated for 30 minutes with shaking, followed by two washes with PBS. 100 μl of TMB substrate was added to each well and the plates were shaken during color development. Plates were read using a plate spectrophotometer at 630 nm.
as §6, §7

The next assay concerns the target T3, αIIbβ3 integrin (Homo sapiens, UniProt P05106+P08514).
T3 construct: chimeras comprising the extracellular domain of αvβ3, αvβ5, α5β1, and αIIbβ3 linked to the Fc domain of either mouse IgG; purchased Celltech plc (supplied, no catalogue number); host or cells: unpurified hybridoma / tissue culture supernatant from secreting cells
Nature of the assay: ELISA: biotinylated fibrinogen binding to captured soluble αIIbβ3-mFc in the presence of RGD peptides.
Text: as §5
The plates were washed with PBS using a Denley Wellwash 4 Mk 2. Washing was repeated twice with a 400 μl wash per well. 200 μl/well of blocking buffer was then added for 1 hour followed by a repeat washing with PBS. 100 μl of tissue culture supernatant from cells secreting soluble αIIbβ3-mFc or αvβ5-mFc, diluted 1:2 in conjugate buffer, was added to each well. […] After incubation, the plates were washed with PBS as described above. 100 μl of neutravidin-peroxidase was added to each well and the plates were incubated for 30 minutes with shaking, followed by two washes with PBS. 100 μl of TMB substrate was added to each well and the plates were shaken during color development. Plates were read using a plate spectrophotometer at 630 nm.
(§8) Two negative and two positive controls were used in both types of ELISAs.
as §7

Another assay concerns the target T4, αvβ3 integrin (Homo sapiens, UniProt P05106+P06756).
T4 construct: chimeras comprising the extracellular domain of αvβ3, αvβ5, α5β1, and αIIbβ3 linked to the Fc domain of either mouse IgG; purchased Celltech plc (supplied, no catalogue number)
The experiment in a line: ELISA: soluble αvβ3-mFc binding to immobilized 50 kDa fibronectin fragment in the presence of RGD peptides.
Text: as §5
The plates were washed with PBS using a Denley Wellwash 4 Mk 2. Washing was repeated twice with a 400 μl wash per well. […] Plates were read using a plate spectrophotometer at 630 nm.
as §8, §7

Assay [3] has as its system A375M melanoma cell line. The experiment in a line: Adhesion assay: [51Cr]-A375M cells to vitronectin. It is filed as cell-based, human. The settings on record: 20 μM peptide. Here is the method:
as §1, §2
(§9) Sodium [^51Cr] chromate was purchased from Amersham International, UK. […]
(§10) 25 μl (about 10,000 cells) were added to each quadruplicate well and the plates incubated at 37° C. in an 8% CO2 atmosphere for 1 hour. […] The radioactivity associated with each well was determined in a gamma counter (1261 Multigamma; Wallac, Sweden). Quadruplicate 25 μl samples of labeled cells were counted as 100% input values. To determine non-specific binding, the ability of cells to bind BSA-coated wells was also assessed. […]
as §4

Assay [4] has as its system VUP melanoma cell line. The experiment in a line: Adhesion assay: [51Cr]-VUP cells to vitronectin. The assay is classed as cell-based. The settings on record: 20 μM peptide. The procedure:
as §1, §2, §9, §10, §4

Setting [5] is: control peptide, concentration not given.
[6] abbreviates: preliminary screen 2, 20, 200 μM.

Values joined by “and” are separate entries in the source; they are usually repeats but may differ in a detail not shown here. Identical values can stand only once.

T1 sequence (P08648 42-995 limits assumed): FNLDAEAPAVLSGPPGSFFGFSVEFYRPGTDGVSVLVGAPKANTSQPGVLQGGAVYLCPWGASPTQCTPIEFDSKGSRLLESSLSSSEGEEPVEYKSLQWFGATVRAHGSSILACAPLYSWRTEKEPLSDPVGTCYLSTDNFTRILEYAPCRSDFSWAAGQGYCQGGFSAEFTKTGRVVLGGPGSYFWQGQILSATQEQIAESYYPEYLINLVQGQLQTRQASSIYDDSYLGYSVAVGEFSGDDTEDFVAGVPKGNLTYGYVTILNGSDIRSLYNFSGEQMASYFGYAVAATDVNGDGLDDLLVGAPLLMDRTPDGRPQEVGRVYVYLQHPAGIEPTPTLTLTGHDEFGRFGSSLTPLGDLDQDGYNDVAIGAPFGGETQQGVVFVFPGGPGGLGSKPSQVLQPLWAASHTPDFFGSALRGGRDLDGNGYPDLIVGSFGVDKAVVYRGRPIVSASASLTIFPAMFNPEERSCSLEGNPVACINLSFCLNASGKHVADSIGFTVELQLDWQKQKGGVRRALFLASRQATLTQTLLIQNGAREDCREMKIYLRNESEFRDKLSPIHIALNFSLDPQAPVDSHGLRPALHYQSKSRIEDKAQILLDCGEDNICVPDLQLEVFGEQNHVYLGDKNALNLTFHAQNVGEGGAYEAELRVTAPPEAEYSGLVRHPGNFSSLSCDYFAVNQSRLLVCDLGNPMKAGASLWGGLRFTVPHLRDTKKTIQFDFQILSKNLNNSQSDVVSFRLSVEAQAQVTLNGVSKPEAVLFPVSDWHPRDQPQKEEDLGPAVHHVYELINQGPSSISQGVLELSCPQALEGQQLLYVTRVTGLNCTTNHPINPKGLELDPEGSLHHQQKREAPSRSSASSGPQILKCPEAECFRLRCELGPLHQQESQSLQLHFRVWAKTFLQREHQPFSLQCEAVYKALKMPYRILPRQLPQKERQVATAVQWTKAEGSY
T1 sequence (P05556 21-728 limits assumed): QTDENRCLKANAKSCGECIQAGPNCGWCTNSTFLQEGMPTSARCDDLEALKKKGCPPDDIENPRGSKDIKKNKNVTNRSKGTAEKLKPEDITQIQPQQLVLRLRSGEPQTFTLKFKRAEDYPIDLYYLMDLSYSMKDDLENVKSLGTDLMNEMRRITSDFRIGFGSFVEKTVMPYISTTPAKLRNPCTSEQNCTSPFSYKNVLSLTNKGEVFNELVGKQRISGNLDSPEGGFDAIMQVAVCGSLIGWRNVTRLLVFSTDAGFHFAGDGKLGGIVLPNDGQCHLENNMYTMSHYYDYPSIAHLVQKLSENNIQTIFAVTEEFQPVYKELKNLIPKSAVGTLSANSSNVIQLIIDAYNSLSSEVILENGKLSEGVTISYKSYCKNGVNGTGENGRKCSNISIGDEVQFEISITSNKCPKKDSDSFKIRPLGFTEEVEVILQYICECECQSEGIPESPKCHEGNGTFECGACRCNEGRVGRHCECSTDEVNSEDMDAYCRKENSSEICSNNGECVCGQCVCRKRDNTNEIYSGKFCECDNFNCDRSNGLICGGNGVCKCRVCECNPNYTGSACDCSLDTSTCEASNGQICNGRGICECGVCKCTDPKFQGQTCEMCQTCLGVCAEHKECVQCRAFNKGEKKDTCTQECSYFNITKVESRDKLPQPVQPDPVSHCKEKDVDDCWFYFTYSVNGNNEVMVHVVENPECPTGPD
T2 sequence (P06756 31-992 limits assumed): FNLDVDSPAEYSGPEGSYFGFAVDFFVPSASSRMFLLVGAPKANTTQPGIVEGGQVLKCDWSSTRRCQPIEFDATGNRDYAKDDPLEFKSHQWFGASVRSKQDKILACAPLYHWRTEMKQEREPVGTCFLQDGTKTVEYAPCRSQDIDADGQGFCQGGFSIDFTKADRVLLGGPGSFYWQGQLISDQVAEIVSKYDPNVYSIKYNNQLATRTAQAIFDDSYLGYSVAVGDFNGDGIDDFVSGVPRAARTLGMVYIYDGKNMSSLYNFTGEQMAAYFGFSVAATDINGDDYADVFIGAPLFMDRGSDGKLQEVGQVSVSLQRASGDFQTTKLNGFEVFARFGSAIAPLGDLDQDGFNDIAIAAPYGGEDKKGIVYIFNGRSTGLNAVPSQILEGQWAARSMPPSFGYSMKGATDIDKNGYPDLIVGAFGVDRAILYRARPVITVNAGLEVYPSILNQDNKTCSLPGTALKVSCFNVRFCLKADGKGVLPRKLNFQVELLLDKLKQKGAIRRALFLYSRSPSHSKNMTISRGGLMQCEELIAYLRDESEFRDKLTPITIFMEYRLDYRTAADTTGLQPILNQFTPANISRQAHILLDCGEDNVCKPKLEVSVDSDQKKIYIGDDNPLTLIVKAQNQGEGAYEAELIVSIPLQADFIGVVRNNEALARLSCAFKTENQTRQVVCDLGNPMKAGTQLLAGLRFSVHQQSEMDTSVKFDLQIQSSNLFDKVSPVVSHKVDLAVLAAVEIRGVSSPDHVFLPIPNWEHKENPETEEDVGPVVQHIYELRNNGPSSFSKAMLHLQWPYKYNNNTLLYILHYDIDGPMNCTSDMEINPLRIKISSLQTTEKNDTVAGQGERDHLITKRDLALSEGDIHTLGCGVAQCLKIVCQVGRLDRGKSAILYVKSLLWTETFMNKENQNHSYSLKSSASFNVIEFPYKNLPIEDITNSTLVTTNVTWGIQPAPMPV
T2 sequence (P18084 24-719 limits assumed): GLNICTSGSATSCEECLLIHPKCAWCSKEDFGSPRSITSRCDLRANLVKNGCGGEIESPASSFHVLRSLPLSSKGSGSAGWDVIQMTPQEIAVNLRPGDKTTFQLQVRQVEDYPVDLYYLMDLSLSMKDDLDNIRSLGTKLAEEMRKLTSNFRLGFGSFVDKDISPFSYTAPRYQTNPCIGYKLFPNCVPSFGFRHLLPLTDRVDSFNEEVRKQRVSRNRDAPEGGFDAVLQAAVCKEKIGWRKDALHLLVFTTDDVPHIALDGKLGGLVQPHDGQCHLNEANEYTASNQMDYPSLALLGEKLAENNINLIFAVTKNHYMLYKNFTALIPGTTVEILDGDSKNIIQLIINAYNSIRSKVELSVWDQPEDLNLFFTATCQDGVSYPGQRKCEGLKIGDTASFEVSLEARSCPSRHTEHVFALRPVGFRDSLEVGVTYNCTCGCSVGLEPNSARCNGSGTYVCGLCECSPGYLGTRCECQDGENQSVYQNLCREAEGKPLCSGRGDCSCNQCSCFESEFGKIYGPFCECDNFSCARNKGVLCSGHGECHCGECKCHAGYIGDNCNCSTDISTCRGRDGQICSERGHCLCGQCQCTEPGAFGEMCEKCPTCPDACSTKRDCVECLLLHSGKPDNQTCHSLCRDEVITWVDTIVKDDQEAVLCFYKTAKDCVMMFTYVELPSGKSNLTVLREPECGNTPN
T4 sequence (P06756 31-992 limits assumed): as the sequence (P06756 31-992 limits assumed) above
T4 sequence (P05106 27-718 limits assumed): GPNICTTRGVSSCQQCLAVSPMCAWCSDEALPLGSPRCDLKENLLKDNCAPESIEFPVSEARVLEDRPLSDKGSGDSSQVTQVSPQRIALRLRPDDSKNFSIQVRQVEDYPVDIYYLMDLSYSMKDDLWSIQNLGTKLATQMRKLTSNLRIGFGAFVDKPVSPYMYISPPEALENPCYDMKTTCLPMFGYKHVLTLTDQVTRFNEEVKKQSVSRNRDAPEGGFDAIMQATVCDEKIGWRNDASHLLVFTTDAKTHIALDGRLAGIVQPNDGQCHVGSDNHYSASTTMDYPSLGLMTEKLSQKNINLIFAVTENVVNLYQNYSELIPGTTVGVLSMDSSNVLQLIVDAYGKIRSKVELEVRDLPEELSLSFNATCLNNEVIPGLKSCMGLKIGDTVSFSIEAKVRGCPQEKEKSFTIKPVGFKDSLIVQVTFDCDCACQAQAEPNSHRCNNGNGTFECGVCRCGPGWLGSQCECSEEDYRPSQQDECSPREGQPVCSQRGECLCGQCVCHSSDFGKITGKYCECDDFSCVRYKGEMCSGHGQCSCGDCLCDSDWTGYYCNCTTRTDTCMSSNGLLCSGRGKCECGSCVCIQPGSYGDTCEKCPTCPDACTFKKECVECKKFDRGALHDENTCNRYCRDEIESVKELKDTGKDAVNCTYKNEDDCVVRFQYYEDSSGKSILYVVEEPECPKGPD

GRGDSP [reference compound]: the “adhesion of [51Cr]-VUP cells to laminin, normalized to absence of peptide (100%)” value in the assay on VUP melanoma cell line [1] (setting [5]) is 49.29%±2.74% and 43.05%±7.66%. Also, the “adhesion of [51Cr]-A375M cells to laminin, normalized to absence of peptide (100%)” value in the assay on A375M melanoma cell line [2] (200 μM peptide) is recorded as 13.51%±1.25%; in the assay on A375M melanoma cell line [2] (setting [5]), 62.05%±1.88%.

In the case of “H-KPQVTRGDVFTEG-NH2 [A11, linear peptide, reference compound]”, the “effect on the binding of fibronectin to α5β1” value in the assay with α5β1 integrin (setting [6]) was “no effect”. The “effect on the binding of vitronectin to αvβ5” value with αvβ5 integrin (setting [6]) is “no effect”. Also, the “effect on the binding of fibrinogen to αIIbβ3” value in the assay with αIIbβ3 integrin (20 μM) was “significant effect”. Further, in the assay with αvβ3 integrin (2 μM), the “effect on fibronectin binding to αvβ3” value is given as “little effect”. In the assay with αvβ3 integrin (20 μM peptide), the “fibronectin binding to αvβ3, % of the maximum signal” value is 58.7%.

With RGDY(OMe)K [A7], the “adhesion of [51Cr]-A375M cells to vitronectin, normalized to absence of peptide (100%)” value in the assay on A375M melanoma cell line [3] was 106.99±1.66%. For the same substance, on α5β1 integrin (2 μM and 20 μM), the “effect on α5β1 binding to fibronectin” value was “little effect”. In addition, the “adhesion of [51Cr]-VUP cells to laminin, normalized to absence of peptide (100%)” value with VUP melanoma cell line [1] (highest concentration (200 μM)) is listed as 64.17%±1.31%. Also, the “adhesion of [51Cr]-A375M cells to laminin, normalized to absence of peptide (100%)” value with A375M melanoma cell line [2] (200 μM peptide) is 75.08%±1.53%. In addition, the “effect on αvβ5 binding to vitronectin” value at αvβ5 integrin (2 μM and 20 μM) is reported as “little effect”. Moreover, the “adhesion of [51Cr]-VUP cells to vitronectin, normalized to absence of peptide (100%)” value in the assay on VUP melanoma cell line [4] was 78.65%±3.98%.

Take RGDY(OMe)KE [C1]: the “selectivity for αIIbβ3 integrin” value on αIIbβ3 integrin is “high selectivity for αIIbβ3 integrin”. Moreover, the “fibrinogen binding to αIIbβ3” value at αIIbβ3 integrin (2 nM peptide) was 59%. On αIIbβ3 integrin (nanomolar concentrations), the “effect on the binding of αIIbβ3 to fibrinogen” value is reported as “significant effect”.
